How the values were obtained:
Assay type in all cases: in vivo
[1] = tested on: barnyardgrass (Echinochloa crus-galli); test: Test A pre-/postemergence: barnyardgrass; conditions: 1000 g ai/ha
How it was run: (§1)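 Soil medium was loam blended with sand; treatments pre- and postemergence were applied concurrently, postemergence at one- to two-leaf stage. Approximately ten days in greenhouse preceded visual comparison with untreated controls, scored 0 (no effect) to 100 (complete control).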

[2] = tested on: crabgrass, large (large crabgrass, Digitaria sanguinalis); test: Test A pre-/postemergence: crabgrass, large; conditions: 1000 g ai/ha
How it was run: as §1

[3] = tested on: foxtail, giant (giant foxtail, Setaria faberii); test: Test A pre-/postemergence: foxtail, giant; conditions: 1000 g ai/ha
How it was run: as §1

[4] = tested on: morningglory (Ipomoea spp.); test: Test A pre-/postemergence: morningglory; conditions: 1000 g ai/ha
How it was run: as §1

[5] = tested on: pigweed (Amaranthus retroflexus); test: Test A pre-/postemergence: pigweed; conditions: 1000 g ai/ha
How it was run: as §1

[6] = tested on: velvetleaf (Abutilon theophrasti); test: Test A pre-/postemergence: velvetleaf; conditions: 1000 g ai/ha
How it was run: as §1

[7] = tested on: wheat (Triticum aestivum); test: Test A pre-/postemergence: wheat; conditions: 1000 g ai/ha
How it was run: as §1

corn (Zea mays) = test: Test A pre-/postemergence: corn; conditions: 1000 g ai/ha
How it was run: as §1

rice (Oryza sativa) = test: Test C flooded paddy test: rice; conditions: scale 0 to 100 (0 no effect, 100 complete control)
How it was run: (§2)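 2-leaf stage plants; pots flooded 3 cm above soil; compound applied into paddy water, depth maintained. Greenhouse 13–15 d. Visual rating vs controls, 0–100 (0 = no effect, 100 = complete control); dash = no result.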

[8] = tested on: sedge, umbrella (small-flower umbrella sedge, Cyperus difformis); test: Test C flooded paddy test: sedge, umbrella; conditions: scale 0 to 100 (0 no effect, 100 complete control)
How it was run: as §2

[9] = tested on: ducksalad (Heteranthera limosa); test: Test C flooded paddy test: ducksalad; conditions: scale 0 to 100 (0 no effect, 100 complete control)
How it was run: as §2

[10] = tested on: barnyardgrass (Echinochloa crus-galli); test: Test C flooded paddy test: barnyardgrass; conditions: scale 0 to 100 (0 no effect, 100 complete control)
How it was run: as §2

[11] = Postemergence, visual rating on 0 to 100 scale (0 no effect, 100 complete control), approximately ten days
[12] = Preemergence, 0 to 100 scale, 0 is no effect, 100 is complete control
[13] = Flood (flooded paddy test), 250 g ai/ha, visual rating after 13 to 15 days

Compound | Barnyardgrass plant response rating [1, 11] | Barnyardgrass plant response rating [1, 12] | Crabgrass, Large plant response rating [2, 11] | Crabgrass, Large plant response rating [2, 12] | Foxtail, Giant plant response rating [3, 11] | Foxtail, Giant plant response rating [3, 12] | Morningglory plant response rating [4, 11] | Morningglory plant response rating [4, 12] | Pigweed plant response rating [5, 11] | Velvetleaf plant response rating [6, 11] | Wheat plant response rating [7, 11] | Corn plant response rating (corn (Zea mays); [11]) | Plant response rating, Rice (rice (Oryza sativa); [13]) | Plant response rating, Rice (rice (Oryza sativa); Flood, 62 g ai/ha) | Plant response rating, Sedge, Umbrella [8, 13] | Plant response rating, Sedge, Umbrella ([8]; Flood, 62 g ai/ha) | Plant response rating, Ducksalad [9, 13] | Plant response rating, Ducksalad ([9]; Flood, 62 g ai/ha) | Plant response rating, Barnyardgrass [10, 13] | Plant response rating, Barnyardgrass ([10]; Flood, 62 g ai/ha) | further results
CCc1nn(-c2ccc(C(F)(F)F)cc2)nc1Cn1cnc(C(F)(F)F)n1 [Compound 130] | 50 | 50 | 90 | 90 | 80 | 90 | 100 | 40 | 100 | 100 | 30 | 30 | 15 | 0 | 75 | 30 | 20 | 0 | 15 | 0 | Pigweed plant response rating [5, 12]: 90; Velvetleaf plant response rating [6, 12]: 20; Wheat plant response rating [7, 12]: 10; Corn plant response rating (corn (Zea mays); [12]): 0
CCc1nn(-c2ccc(C(F)(F)F)cc2)nc1Cn1nc(C(F)(F)F)cc1C [Compound 131] | 30 | 20 | 90 | 90 | 50 | 90 | 70 | 10 | 100 | 40 | 0 | 30 | 0 | 0 | 0 | 0 | 20 | 0 | 10 | 0 | Pigweed plant response rating [5, 12]: 90; Velvetleaf plant response rating [6, 12]: 0; Wheat plant response rating [7, 12]: 0; Corn plant response rating (corn (Zea mays); [12]): 0
Cc1nn(-c2ccc(C(F)(F)F)cc2)nc1Cn1cnc(C(F)(F)F)n1 [Compound 132] | 80 | 90 | 90 | 100 | 90 | 100 | 100 | 60 | 100 | 90 | 30 | 30 | 0 | 0 | 65 | 0 | 20 | 0 | 0 | 0 | Pigweed plant response rating [5, 12]: 100; Velvetleaf plant response rating [6, 12]: 60; Wheat plant response rating [7, 12]: 0; Corn plant response rating (corn (Zea mays); [12]): 0
CCc1nn(-c2ccc(C(F)(F)F)cc2)nc1Cn1cnc(C(F)(F)F)c1 [Compound 133] | 40 |  | 80 |  | 70 |  | 90 |  | 100 | 90 | 30 | 20 | 0 | 0 | 50 | 0 | 20 | 0 | 15 | 0 | Plant response rating, Barnyardgrass [1, 12]: 40; Plant response rating, Crabgrass, Large [2, 12]: 90; Plant response rating, Foxtail, Giant [3, 12]: 90; Plant response rating, Morningglory [4, 12]: 40; Plant response rating, Pigweed [5, 12]: 90; Plant response rating, Velvetleaf [6, 12]: 40; Plant response rating, Wheat [7, 12]: 0; Plant response rating, Corn (corn (Zea mays); [12]): 10
Cc1nn(-c2ccc(C(F)(F)F)cc2)nc1Cn1nc(C(F)(F)F)cc1C [Compound 134] | 30 |  | 90 |  | 50 |  | 100 |  | 100 | 50 | 0 | 20 | 0 | 0 | 0 | 0 | 0 | 0 | 15 | 0 | Plant response rating, Barnyardgrass [1, 12]: 30; Plant response rating, Crabgrass, Large [2, 12]: 100; Plant response rating, Foxtail, Giant [3, 12]: 100; Plant response rating, Morningglory [4, 12]: 10; Plant response rating, Pigweed [5, 12]: 90; Plant response rating, Velvetleaf [6, 12]: 0; Plant response rating, Wheat [7, 12]: 0; Plant response rating, Corn (corn (Zea mays); [12]): 10
